Patent US11708319B2, “Biphenyl amides with modified ether groups as HSP90 inhibitors and HSP70 inducers” (THE UNIVERSITY OF KANSAS, priority 2014, dated 2023)
Entries after “also recorded” stand apart in the source; their conditions may differ.

How the values were obtained:
[1] = tested on: Hsp70 promoter (1.5 kb region upstream of the start codon of the human HSPA1A gene) in 50B11 cells; assay: Luciferase reporter assay assessing Hsp70 induction; assay type: cell-based; details: for Hsp70 induction (luciferase), Mean: 50B11 cells treated 16 hrs, DMSO (negative control) assigned a value of 100
Description: The luciferase reporter assay was performed using a 1.5 kb region upstream of the start codon of the human HSPA1A gene to drive luciferase expression as previously described. 50B11 cells (Chen, et al., 2007) were grown in 10 cm dishes in maintenance medium and the cells were transfected using lipofectamine. Twenty four hour after transfection, the cells were re-seeded into 24 well plates at a density of 2×10^5 cells per well. After a 6 hrs period to permit attachment, the cells were treated with the indicated compounds for 16 hrs. Luciferase activity was assessed and normalized to the total protein concentration of each well.

[2] = tested on: Hsp70 protein expression in 50B11 cells; assay: Immunoblot analysis of Hsp70 protein expression; assay type: cell-based; details: 24 hr, 1 μM, FIGS. 3A & 3B
Description: FIGS. 3A & 3B show the induction of Hsp70 protein expression by some of the compounds described herein. […] In the immunoblot analysis, 50B11 cells were treated for 24 hr with 1 μM of the indicated analogs or 250 nM geldanamycin (GDA) as a positive control. […] Results are mean±standard error of the mean (SEM) (n=6). […] The remaining para-substituted and ortho-substituted compounds were similarly effective.
50B11 cells were treated with the indicated compounds for 24 hrs and were scraped into lysis buffer containing 50 mM Tris-HCl, pH 7.4, 150 mM NaCl, 1 mM EDTA, 1% NP-40, 0.5 mM sodium orthovandate, 40 mM NaF, 10 mM β-glycerophosphate, and Complete Protease Inhibitors (Roche Diagnostics). After 15 minutes on ice, the lysates were sonicated then centrifuged at 10,000×g for 10 min at 4° C. The protein concentration of the supernatant was estimated using a Bio-Rad protein assay and bovine serum albumin as the standard. Following SDS-PAGE, the proteins were transferred to nitrocellulose and the membrane incubated with 5% non-fat dry milk in phosphate buffered saline containing 0.1% Tween 20 (PBST) for 1-2 hrs at room temperature. The blots were probed with primary antibodies recognizing Hsp70 or R-actin at 4° C. overnight. The membranes were washed with PBST and subsequently incubated with HRP-conjugated secondary antibodies and immunoreactive proteins were visualized using chemiluminescence detection (GE Healthcare Life Sciences, Little Chalfont, Buckinghamshire, UK). The films were digitally scanned and densitometrically analyzed using ImageJ (NIH) software. Client protein degradation in MCF7 cells was performed as previously described (Urban, et al., 2010).

50B11 cells = assay: Mitochondrial bioenergetic assessment (XF96 extracellular flux analyzer, OCR and ECAR); assay type: cell-based; details: 24 hrs, FIG. 4
Description: 50B11 cells were treated for 24 hr with DMSO (1), 10 nM (2,6,10), 100 nM (3,7,11), 500 nM (4,8,12) or 1,000 nM (5,9,13) of compounds 74 (2-5), 75 (6-9) or 59 (10-13). Mitochondrial respiration was measured in the intact cells using an XF96 extracellular flux analyzer that provides concurrent measures of mitochondrial oxygen consumption rate (OCR) and extracellular acidification rate (ECAR) as an indication of glycolytic activity. Results are plotted OCR versus ECAR. The net effect of the drugs on oxidative phosphorylation and glycolysis is indicated in each quadrant. Results are mean±standard error of the mean (SEM) (n=6).
Oxygen consumption rate (OCR) was assessed in the 50B11 transformed sensory neuron cell line, using an XF96 Extracellular Flux Analyzer (Seahorse Biosciences, North Billerica, Mass.). 50B11 cells were seeded into the 96 well plates at 40,000 cells per well and maintained in high glucose DMEM supplemented with 10% fetal bovine serum (Atlas Biologics, Fort Collins Colo.), 5 μg/ml blasticidin and antibiotics at 37° C. The maintenance media was changed to serum free unbuffered DMEM supplemented with 1 mM pyruvate and 5.5 mM D-glucose and the cells incubated at 37° C. in room air for one hour before starting the assay. After introducing the plate into the XF96 analyzer, the basal oxygen consumption rate (OCR) was measured prior to the addition of 1 μg/ml oligomycin to inhibit the ATP synthase to measure the portion of the basal OCR that was coupled to ATP synthesis; residual OCR after oligomycin treatment is from uncoupled respiration (proton leak). […]
After the respiratory measures, the cells were harvested and the protein content of each well determined using a Bradford protein assay. OCR values were normalized to the total protein content of each well and ATP-linked respiration, proton leak, maximal respiratory capacity, spare respiratory capacity and respiratory control ratio were determined as described (Brand and Nicholls, 2011; Chowdhury, et al., 2012)

[3] = molecular target: Hsp90 C-terminus nucleotide binding pocket; details: low affinity; cited from earlier work
[4] = 10 nM to 1,000 nM, FIG. 2, Table 2

SMILES	Hsp70 induction in luciferase assay (in words) [1, 4]	Hsp70 induction (luciferase), Mean ([1]; 10 nM)	Hsp70 induction (luciferase), Mean ([1]; 100 nM)	Hsp70 induction (luciferase), Mean ([1]; 500 nM)	Hsp70 induction (luciferase), Mean ([1]; 1000 nM)	Hsp70 protein expression (immunoblot, in words) [2]	further results
CC(=O)NCCc1ccc(O)cc1-c1cccc(F)c1 [Compound 20]	inactive	88.07	87.40	93.87	96.56		
CC(=O)NCCc1ccc(OC2CCC(OCc3ccccc3)CC2)cc1-c1cccc(F)c1 (centres unmarked) [Compound 44, N-(2-(5-((4-(benzyloxy)cyclohexyl)oxy)-3′-fluoro-[1,1′-biphenyl]-2yl)ethyl)acetamide]						induced Hsp70 protein expression	Hsp70 induction in luciferase assay (in words) ([1]; 500 nM and 1,000 nM, FIG. 1): highest level of Hsp70 expression
CC(=O)NCCc1ccc(OC2CCC(OCc3ccc(Cl)cc3)CC2)cc1-c1cccc(F)c1 (centres unmarked) [Compound 59, N-(2-(5-((4-((4-chlorobenzyl)oxy)cyclohexyl)oxy)-3′-fluoro-[1,1′-biphenyl]-2-yl)ethyl)acetamide]	robust induction of luciferase activity					less effective	Cellular respiration (in words) (50B11 cells): decreased cellular respiration
CC(=O)NCCc1ccc(OC2C=CC(OCc3ccc(Cl)cc3)CC2)cc1-c1cccc(F)c1 (centres unmarked) [Compound 74]						equivalent levels of Hsp70 induction	
CC(=O)NCCc1ccc(OC2CCC(OCc3ccc(Cl)cc3)[C@@H](O)[C@H]2O)cc1-c1cccc(F)c1 (stereo partly drawn) [Compound 75, N-(2-(5-(((2R,3S)-4-((4-chlorobenzyl)oxy)-2,3-dihydroxycyclohexyl)oxy)-3′-fluoro-[1,1′-biphenyl]-2-yl)ethyl)acetamide]	good induction of Hsp70					equivalent levels of Hsp70 induction; also recorded: increased Hsp70 protein expression	Oxidative phosphorylation and glycolysis (OCR versus ECAR, in words) (50B11 cells; 10 nM to 1,000 nM): more effective at dose dependently increasing oxidative phosphorylation and glycolysis; Cellular respiration (in words) (50B11 cells): increased cellular respiration
CC(=O)Nc1cc2ccc(OC3CCC(OCc4ccccc4)CC3)c(C)c2oc1=O (centres unmarked) [Compound 77]		146.19	106.40	102.93	100.29		
CC(=O)Nc1cc2ccc(OC3CCC(OCc4ccc(Cl)cc4)CC3)c(C)c2oc1=O (centres unmarked) [Compound 78]		85.73	94.52	97.39	105.69		
CC(=O)Nc1cc2ccc(OC3CCC(OCc4ccccc4Br)CC3)c(C)c2oc1=O (centres unmarked) [Compound 79, N-(7-((4-((2-bromobenzyl)oxy)cyclohexyl)oxy)-8-methyl-2-oxo-2H-chromen-3-yl)acetamide]		105.83	102.65	97.09	91.42		
COc1ccccc1COC1CCC(Oc2ccc3cc(NC(C)=O)c(=O)oc3c2C)CC1 (centres unmarked) [Compound 80, N-(7-((4-((2-methoxybenzyl)oxy)cyclohexyl)oxy)-8-methyl-2-oxo-2H-chromen-3-yl)acetamide]		130.87	151.51	129.16	142.77		
CO[C@@H]1[C@@H](OC(N)=O)[C@@H](O)[C@H](Oc2ccc3c(O)c(NC(=O)c4ccc(O)c(CC=C(C)C)c4)c(=O)oc3c2C)OC1(C)C [novobiocin]							IC50 [3]: ~700 µM
